The record followed here is PubChem BioAssay AID1224920 (Broad Institute, 2016).

The source made the active and inactive calls.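 Rule for the calls: active = IC50 no higher than ten times the top tested dose; inconclusive = flat fit with 30 to 70% inhibition, or poor fit; inactive = IC50 above ten times the top dose.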

A short description of the assay: growth modulation of Clostridium difficile isolate – OD600, 9-point, retest, dose response (AID 1224920).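 Note: plate controls were DMSO for no effect and levofloxacin control for full effect; inhibitors lower culture turbidity so OD600 falls.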 Particulars: Clostridium difficile clinical isolate growth, OD600, 24 h.

Turning to `COc1cccc(-c2ccc3c(c2)[C@@H]2[C@@H](CCN2Cc2ccccc2OC)[C@@H](CO)N3)c1`, under “at 30 µM (top of the series)”, the activity change, negative = inhibition is -7.43% (inactive).

Regarding `COc1ccc2c3c(n(C)c2c1)[C@H](CO)N(C(=O)c1ccncc1)CC31CN(C)C1`, the activity change, negative = inhibition (at 120 µM (top of the series)) was 3.29% (inactive).

With `C[C@@H]1CN([C@@H](C)CO)C(=O)Cc2cc(NS(=O)(=O)c3ccccc3)ccc2O[C@@H]1CN(C)Cc1ccc(Oc2ccccc2)cc1`, for the setting “at 120 µM (top of the series)”, the activity change, negative = inhibition is 39.5% (inactive).

With `COc1ccccc1-c1ccc(C2[C@@H]3CN(Cc4nccs4)C[C@H]2N3)cc1` (stereo not given in full), the activity change, negative = inhibition (at 68 µM (top of the series)) was 37.9% (inactive).

Take `N#C[C@@H]1[C@H](c2ccccc2-c2cccc(F)c2)[C@H](CO)N1C(=O)Cc1cccnc1`: where the note is “at 135 µM (top of the series)”, the activity change, negative = inhibition is 9.55% (inactive).

`COc1ccc(-c2ccc3c(c2)[C@H]2[C@H](CCN2C(=O)Cc2cccnc2)[C@H](CO)N3C)cc1`: the activity change, negative = inhibition (at 120 µM (top of the series)) was 28.9% (inactive).

On to `COc1ccc(NC(=O)N2CC[C@@H]3[C@H]2c2cc(Br)ccc2N(C)[C@@H]3CO)cc1`, for which, where the note is “at 135 µM (top of the series)”, the activity change, negative = inhibition was 17.8% (inactive).

In the case of `Cc1ccccc1S(=O)(=O)N1CC[C@H]2[C@H](CO)Nc3ccc(-c4ccc(F)cc4)cc3[C@H]21`, for the setting “at 60 µM (top of the series)”, the activity change, negative = inhibition was 13.1% (inactive).

In the case of `COc1ccccc1-c1ccc2c(c1)[C@@H]1[C@@H](CCN1C(=O)C1CCOCC1)[C@@H](CO)N2`, the activity change, negative = inhibition (at 60 µM (top of the series)) is 39.1% (inactive).

As to `COc1ccc(NC(=O)N2CCCCN3[C@@H](CO)[C@@H](c4ccc(-c5ccccc5C)cc4)[C@@H]3C2)cc1`, the activity change, negative = inhibition (at 30 µM (top of the series)) was 48% (inactive).

As for `O=C(NC[C@H]1N[C@H](CO)[C@@H]1c1ccc(C2=CCCC2)cc1)C1CCCCC1`, the activity change, negative = inhibition (at 60 µM (top of the series)) was 36.2% (inactive).

Regarding `C/C=C/c1ccc([C@H]2[C@@H](CNC(=O)c3ccccn3)N(C(C)=O)[C@H]2CO)cc1`, where the note is “at 135 µM (top of the series)”, the activity change, negative = inhibition was -7.58% (inactive).

`N#Cc1cccc(-c2ccc(C3[C@@H]4CN(S(=O)(=O)Cc5ccccc5)C[C@H]3N4)cc2)c1` (stereo not given in full): the activity change, negative = inhibition (at 60 µM (top of the series)) is 29.4% (inactive).

For the compound `COc1ccc(NC(=O)N2[C@@H]3CNC[C@H]2C3c2ccc(-c3ccc(F)cc3)cc2)cc1` (stereo not given in full), the activity change, negative = inhibition (at 60 µM (top of the series)) was 39.8% (inactive).

For `Cc1ccc(-c2ccccc2[C@@H]2[C@@H](C#N)N(C(=O)NC3CCCC3)[C@H]2CO)cc1`, the activity change, negative = inhibition (at 135 µM (top of the series)) is 25% (inactive).

`O=C(c1ccc(F)cc1)N1CC[C@@H]2[C@H]1c1cc(C3=CCCCC3)ccc1N[C@@H]2CO`: the activity change, negative = inhibition (at 60 µM (top of the series)) is 34.8% (inactive).

Regarding `CC(=O)NC[C@@H]1[C@H](c2ccc(-c3cccc(F)c3)cc2)[C@H](CO)N1C(C)=O`, the activity change, negative = inhibition (at 120 µM (top of the series)) was -6.3% (inactive).

Turning to `Cc1ccc(-c2ccc([C@@H]3[C@@H](CO)N4CCCCN(C(=O)Nc5cccc(F)c5)C[C@@H]34)cc2)cc1`, the activity change, negative = inhibition (at 135 µM (top of the series)) was 15.8% (inactive).

In the case of `COc1cccc(-c2ccc(C3[C@@H]4CN(C(=O)C5CCCCC5)C[C@H]3N4)cc2)c1` (stereo not given in full), the activity change, negative = inhibition (at 60 µM (top of the series)) was 34.7% (inactive).

For the compound `O=C(NC[C@H]1N[C@H](CO)[C@@H]1c1ccc(C2=CCCCC2)cc1)C1CCCC1`, the activity change, negative = inhibition (at 60 µM (top of the series)) was 38.1% (inactive).

Turning to `Cc1noc(C)c1NC(=O)N(C)C[C@H]1Oc2ccc(NC(=O)Nc3ccc4c(c3)OCO4)cc2CC(=O)N([C@H](C)CO)C[C@@H]1C`, the activity change, negative = inhibition (at 120 µM (top of the series)) was -2.04% (inactive).

As for `COc1cccc(-c2ccc3c(c2)[C@@H]2[C@@H](CCN2C(=O)Nc2ccccc2OC)[C@@H](CO)N3C)c1`, the activity change, negative = inhibition (at 135 µM (top of the series)) is -19.3% (inactive).

In the case of `Cc1ccccc1-c1ccc(C2[C@@H]3CN(C(=O)C4CCCC4)C[C@H]2N3)cc1` (stereo not given in full), where the note is “at 60 µM (top of the series)”, the activity change, negative = inhibition was 34.2% (inactive).

`CC(=O)N(C)C[C@@H]1[C@@H](c2ccc(-c3ccccc3F)cc2)[C@H](CO)N1C(C)=O`: the activity change, negative = inhibition (at 120 µM (top of the series)) was -14.3% (inactive).

With `C/C=C/c1ccc([C@@H]2[C@@H](CO)N(C(=O)CC)[C@@H]2CNC(=O)CC)cc1`, the activity change, negative = inhibition (at 120 µM (top of the series)) was -6.09% (inactive).
